The results in this text go back to ChEMBL document CHEMBL5465560, “Selectivity Literature for EUbOPEN Chemogenomic Library” (2024).

In experiment [1] the target is DNA-dependent protein kinase catalytic subunit (Homo sapiens) (UniProt P78527). The experiment can be described thus: Selectivity interaction (Kinase panel (KiNativ target engagement assay in Jurkat cells)) EUB0001635a PRKDC. It is filed as cell-based. Particulars: Selectivity number of off-targets 0.0, Selectivity number of targets 233.0, Source Knowledge https://www.sciencedirect.com/science/article/pii/S2451945619300674?via%3Dihub, at 1 µM.

Experiment [2] deals with T1, Serine/threonine-protein kinase LATS2 (Homo sapiens) (UniProt Q9NRM7).
T1 sequence (whole entry): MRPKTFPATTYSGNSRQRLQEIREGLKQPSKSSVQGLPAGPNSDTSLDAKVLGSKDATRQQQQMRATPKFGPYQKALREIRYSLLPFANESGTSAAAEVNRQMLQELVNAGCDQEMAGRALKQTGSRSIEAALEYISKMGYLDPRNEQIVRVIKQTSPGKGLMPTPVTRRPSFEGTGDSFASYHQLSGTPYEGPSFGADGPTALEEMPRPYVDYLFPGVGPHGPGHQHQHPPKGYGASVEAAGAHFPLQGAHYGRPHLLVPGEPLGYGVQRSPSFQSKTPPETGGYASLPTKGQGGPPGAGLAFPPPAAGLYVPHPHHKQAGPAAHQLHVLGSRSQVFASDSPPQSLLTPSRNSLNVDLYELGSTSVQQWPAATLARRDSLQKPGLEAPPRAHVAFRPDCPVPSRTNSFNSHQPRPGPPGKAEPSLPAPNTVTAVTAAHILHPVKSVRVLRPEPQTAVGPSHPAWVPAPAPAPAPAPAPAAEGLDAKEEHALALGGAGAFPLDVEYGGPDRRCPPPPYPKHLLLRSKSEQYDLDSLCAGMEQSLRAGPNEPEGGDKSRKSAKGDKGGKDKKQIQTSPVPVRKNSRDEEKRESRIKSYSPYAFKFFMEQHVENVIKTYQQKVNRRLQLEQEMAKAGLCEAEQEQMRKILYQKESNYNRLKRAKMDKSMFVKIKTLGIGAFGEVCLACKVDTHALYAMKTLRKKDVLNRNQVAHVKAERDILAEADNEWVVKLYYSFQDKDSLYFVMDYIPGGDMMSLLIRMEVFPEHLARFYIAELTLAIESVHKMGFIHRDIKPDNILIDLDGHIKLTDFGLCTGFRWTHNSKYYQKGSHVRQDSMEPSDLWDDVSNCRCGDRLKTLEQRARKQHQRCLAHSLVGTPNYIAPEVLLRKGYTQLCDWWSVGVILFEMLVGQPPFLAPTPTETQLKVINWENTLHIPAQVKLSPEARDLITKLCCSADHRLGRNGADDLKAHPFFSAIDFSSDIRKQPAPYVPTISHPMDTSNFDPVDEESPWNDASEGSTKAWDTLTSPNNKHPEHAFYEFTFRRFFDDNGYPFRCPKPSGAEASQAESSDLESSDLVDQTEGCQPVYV
The experiment can be described thus: Selectivity interaction (Ambit KINOMEscan and KiNATiv profiling in Jurkat cells) EUB0000090b LATS2. Format: cell-based. Particulars: at 1 µM.

Experiment [3] has as its target T2, Cyclin-G-associated kinase (Homo sapiens) (UniProt O14976).
T2 sequence (whole entry): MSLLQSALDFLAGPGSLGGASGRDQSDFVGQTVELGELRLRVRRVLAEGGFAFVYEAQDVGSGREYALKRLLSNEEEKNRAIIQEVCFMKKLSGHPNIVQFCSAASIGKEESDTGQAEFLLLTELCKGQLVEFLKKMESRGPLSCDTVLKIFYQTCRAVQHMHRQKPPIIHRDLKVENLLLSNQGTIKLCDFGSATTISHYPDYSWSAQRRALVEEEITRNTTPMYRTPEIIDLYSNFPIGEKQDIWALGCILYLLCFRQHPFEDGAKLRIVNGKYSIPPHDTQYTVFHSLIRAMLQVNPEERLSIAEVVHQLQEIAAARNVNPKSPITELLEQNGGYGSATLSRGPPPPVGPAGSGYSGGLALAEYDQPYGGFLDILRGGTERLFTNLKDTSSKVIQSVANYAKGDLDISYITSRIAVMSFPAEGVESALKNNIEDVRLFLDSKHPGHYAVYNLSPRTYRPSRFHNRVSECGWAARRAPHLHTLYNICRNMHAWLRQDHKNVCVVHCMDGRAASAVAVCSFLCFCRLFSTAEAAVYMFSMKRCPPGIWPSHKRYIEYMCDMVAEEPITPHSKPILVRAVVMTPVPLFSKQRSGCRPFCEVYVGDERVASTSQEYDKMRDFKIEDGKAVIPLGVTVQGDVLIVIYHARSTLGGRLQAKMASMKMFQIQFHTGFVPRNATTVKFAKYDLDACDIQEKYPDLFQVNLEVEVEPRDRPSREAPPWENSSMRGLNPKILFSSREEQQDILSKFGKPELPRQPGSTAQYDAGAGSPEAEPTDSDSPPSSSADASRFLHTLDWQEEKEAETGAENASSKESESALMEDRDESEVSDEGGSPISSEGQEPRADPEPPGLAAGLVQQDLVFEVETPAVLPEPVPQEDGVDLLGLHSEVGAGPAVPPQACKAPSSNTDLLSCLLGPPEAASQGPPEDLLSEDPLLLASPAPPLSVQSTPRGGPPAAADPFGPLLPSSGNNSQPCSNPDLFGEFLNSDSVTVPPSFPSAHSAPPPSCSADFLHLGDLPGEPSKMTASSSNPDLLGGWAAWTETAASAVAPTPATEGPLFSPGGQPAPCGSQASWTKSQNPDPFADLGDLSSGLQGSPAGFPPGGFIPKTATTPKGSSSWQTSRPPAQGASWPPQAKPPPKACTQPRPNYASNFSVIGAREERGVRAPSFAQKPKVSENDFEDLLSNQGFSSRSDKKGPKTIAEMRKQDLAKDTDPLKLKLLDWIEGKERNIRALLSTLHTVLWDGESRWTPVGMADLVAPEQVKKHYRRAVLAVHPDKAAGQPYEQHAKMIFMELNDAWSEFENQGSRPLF
The experiment can be described thus: Selectivity interaction (Kinase panel (DSF assay)) EUB0001558a GAK.

Experiment [4] addresses Mast/stem cell growth factor receptor Kit (Homo sapiens, UniProt P10721). The experiment can be described thus: Selectivity interaction (KinomeScan (DiscoverX)) EUB0000695a KIT. Conditions: at 100 nM.
The target of experiment [5] is Bromodomain and WD repeat-containing protein 1 (Homo sapiens) (UniProt Q9NSI6). The experiment can be described thus: Selectivity interaction (Bromodomain panel (DSF asssay)) EUB0000270b BRWD1.
In experiment [6] the test system is Epidermal growth factor receptor (Homo sapiens), P00533 [UNDEFINED MUTATION]. The experiment can be described thus: Selectivity interaction (KinomeScan (DiscoverX)) EUB0000045b EGFR. Conditions: at 10 µM.
Experiment [7] addresses Receptor tyrosine-protein kinase erbB-2 (Homo sapiens, UniProt P04626). The experiment can be described thus: Selectivity interaction (KinomeScan (DiscoverX)) EUB0000045b ERBB2.

Receptor tyrosine-protein kinase erbB-2, sequence (P04626 whole entry): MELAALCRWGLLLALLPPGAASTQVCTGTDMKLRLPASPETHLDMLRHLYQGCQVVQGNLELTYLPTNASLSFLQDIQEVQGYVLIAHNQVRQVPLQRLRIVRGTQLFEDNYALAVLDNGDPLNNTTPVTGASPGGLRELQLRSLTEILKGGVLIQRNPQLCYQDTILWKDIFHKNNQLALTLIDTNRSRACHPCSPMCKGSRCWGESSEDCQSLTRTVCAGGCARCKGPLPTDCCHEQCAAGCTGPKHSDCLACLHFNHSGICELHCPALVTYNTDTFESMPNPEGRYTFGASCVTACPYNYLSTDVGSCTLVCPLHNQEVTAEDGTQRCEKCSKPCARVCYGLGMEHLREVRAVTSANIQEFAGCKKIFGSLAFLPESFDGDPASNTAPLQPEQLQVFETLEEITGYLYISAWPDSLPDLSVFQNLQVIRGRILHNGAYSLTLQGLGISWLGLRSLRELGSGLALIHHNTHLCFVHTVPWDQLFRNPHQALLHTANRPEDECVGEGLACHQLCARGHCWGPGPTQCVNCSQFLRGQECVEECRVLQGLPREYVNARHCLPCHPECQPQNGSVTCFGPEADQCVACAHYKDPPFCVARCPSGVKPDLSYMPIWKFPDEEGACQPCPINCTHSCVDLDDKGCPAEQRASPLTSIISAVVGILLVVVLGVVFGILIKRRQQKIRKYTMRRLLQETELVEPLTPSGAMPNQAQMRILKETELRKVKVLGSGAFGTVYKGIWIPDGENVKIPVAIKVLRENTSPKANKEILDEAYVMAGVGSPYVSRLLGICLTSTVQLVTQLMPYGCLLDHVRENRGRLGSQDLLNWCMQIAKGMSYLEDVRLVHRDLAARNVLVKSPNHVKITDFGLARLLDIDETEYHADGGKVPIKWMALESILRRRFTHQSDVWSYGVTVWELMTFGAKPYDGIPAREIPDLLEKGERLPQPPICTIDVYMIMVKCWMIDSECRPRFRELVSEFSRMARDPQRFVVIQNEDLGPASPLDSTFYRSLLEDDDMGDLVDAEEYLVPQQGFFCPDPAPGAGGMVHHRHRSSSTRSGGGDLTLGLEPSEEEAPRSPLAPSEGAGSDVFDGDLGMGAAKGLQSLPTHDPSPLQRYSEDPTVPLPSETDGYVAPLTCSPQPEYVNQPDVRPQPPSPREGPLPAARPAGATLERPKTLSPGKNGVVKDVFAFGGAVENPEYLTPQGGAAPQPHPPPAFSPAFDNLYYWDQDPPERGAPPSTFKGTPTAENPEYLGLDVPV
Mast/stem cell growth factor receptor Kit, sequence (P10721 whole entry): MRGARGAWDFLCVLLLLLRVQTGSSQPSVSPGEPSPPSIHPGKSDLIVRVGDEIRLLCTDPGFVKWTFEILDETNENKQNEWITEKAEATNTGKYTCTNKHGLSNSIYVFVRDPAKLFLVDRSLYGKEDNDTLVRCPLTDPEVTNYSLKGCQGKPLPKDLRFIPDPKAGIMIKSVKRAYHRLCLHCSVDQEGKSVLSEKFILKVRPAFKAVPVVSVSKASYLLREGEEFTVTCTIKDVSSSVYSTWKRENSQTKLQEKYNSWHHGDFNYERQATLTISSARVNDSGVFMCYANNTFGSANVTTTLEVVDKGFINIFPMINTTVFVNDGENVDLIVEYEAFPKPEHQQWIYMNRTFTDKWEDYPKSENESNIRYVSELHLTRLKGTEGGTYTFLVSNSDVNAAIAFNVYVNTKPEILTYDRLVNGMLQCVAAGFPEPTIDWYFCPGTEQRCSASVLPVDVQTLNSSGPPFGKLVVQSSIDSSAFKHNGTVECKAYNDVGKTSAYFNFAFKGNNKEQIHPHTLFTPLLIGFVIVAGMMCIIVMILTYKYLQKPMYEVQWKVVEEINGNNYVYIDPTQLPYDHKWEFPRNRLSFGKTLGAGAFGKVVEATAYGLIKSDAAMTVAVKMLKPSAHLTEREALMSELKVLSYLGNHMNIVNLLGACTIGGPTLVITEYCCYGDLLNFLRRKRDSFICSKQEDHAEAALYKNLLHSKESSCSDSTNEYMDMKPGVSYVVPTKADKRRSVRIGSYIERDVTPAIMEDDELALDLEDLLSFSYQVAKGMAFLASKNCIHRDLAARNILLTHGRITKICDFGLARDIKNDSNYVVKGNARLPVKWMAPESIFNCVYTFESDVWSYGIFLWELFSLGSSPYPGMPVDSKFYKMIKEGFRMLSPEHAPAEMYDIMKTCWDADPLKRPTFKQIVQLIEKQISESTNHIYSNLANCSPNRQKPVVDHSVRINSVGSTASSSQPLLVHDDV
Epidermal growth factor receptor (Homo sapiens), P00533 [UNDEFINED MUTATION], sequence (P00533 whole entry, looked up, change not shown): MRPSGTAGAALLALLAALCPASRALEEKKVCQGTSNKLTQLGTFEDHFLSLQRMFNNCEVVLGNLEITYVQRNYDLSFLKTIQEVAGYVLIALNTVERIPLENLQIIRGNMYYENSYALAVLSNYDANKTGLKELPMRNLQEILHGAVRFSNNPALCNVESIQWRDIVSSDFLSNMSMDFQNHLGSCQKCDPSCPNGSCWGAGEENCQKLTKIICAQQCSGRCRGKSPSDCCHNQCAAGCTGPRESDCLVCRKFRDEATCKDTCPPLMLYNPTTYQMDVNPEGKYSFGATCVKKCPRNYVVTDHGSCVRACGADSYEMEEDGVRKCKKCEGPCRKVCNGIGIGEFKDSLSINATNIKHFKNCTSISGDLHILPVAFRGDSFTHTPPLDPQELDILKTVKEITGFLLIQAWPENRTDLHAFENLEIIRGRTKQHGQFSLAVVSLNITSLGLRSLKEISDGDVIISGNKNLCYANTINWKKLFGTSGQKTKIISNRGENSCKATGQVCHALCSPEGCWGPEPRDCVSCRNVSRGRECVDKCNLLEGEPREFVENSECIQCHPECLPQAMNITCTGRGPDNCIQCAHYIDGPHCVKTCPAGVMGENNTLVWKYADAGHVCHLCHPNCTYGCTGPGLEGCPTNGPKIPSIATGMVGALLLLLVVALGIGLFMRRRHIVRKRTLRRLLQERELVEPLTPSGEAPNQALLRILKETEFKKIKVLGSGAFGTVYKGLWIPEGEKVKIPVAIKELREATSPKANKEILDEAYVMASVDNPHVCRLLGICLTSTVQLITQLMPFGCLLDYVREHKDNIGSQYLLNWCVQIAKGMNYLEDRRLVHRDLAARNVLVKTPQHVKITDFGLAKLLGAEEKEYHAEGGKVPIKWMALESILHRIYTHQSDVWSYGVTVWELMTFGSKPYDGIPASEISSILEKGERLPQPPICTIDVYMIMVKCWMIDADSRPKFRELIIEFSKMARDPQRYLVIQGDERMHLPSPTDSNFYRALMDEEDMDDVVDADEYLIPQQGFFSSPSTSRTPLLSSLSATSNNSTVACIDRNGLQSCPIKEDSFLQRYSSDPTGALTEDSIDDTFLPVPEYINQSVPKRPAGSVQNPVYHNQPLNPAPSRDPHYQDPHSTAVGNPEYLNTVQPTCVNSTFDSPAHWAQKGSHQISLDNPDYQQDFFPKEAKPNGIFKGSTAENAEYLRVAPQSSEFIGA

For the compound `C=CC(=O)Nc1ccc(C(=O)Nc2[nH]nc3c2CN(C(=O)N[C@H](CN(C)C)c2ccccc2)C3(C)C)cc1`, the % of engagement in experiment [1] is -21.9%.
`CN(C)C/C=C/C(=O)Nc1ccc(C(=O)N2CCCC(Nc3ncc(Cl)c(-c4c[nH]c5ccccc45)n3)C2)cc1` (stereo not drawn): the % of control in experiment [2] is 100%.
`CC(C)(O)[C@H](F)CN1Cc2cc(NC(=O)c3cnn4cccnc34)c(N3CCOCC3)cc2C1=O` showed a dTM in experiment [3] of 2.3 K.
The compound `Cc1cc(F)c(C(=O)Nc2cccc(-c3nncn3C(C)C)n2)cc1-n1cnc(C2CC2)c1` showed a % of control in experiment [4] of 100%.
For the compound `Cc1cc(CN)cc(C)c1-c1ncn(C)c1-c1cncn1C`, the dTM in experiment [5] is -1.1 K.
Regarding `C=CC(=O)Nc1cc(-n2c(=O)ccc3cnc4ccc(-c5ccc(NS(C)(=O)=O)cc5)cc4c32)ccc1C`, the % of control in experiment [6] was found to be 65%; in experiment [7] (at 1 µM) it was 90%; in experiment [7] (at 10 µM), 26%.
